In US20230027854A1, “ISOXAZOLE DERIVATIVES TARGETING TACC3 AS ANTICANCER AGENTS” (A2A Pharmaceuticals, inc., priority 2019, published 2023):
pIC50: −log10 of the molar value.

Each compound was assayed on JIMT-1 cells (assay: JIMT-1 cell growth inhibition / cell viability (SRB assay)). Settings: Homo sapiens; JIMT-1 cells; read-out: IC50.
Format: cell-based
Procedure: The ability of the compounds of the present disclosure to treat TACC3-mediated cancers, or associated symptoms or complications thereof, was determined using the following procedures. The compounds of the present disclosure were tested for their activity against cell death induction using a JIMT-1 cell line, which was a cell line having high level of TACC3. The concentration of each compound that was required for half-maximal inhibition of cell proliferation was calculated by a GraphPad Prism (GraphPad Software).
For `COc1ccccc1-c1cc(Nc2ccnc(N3CCOCC3)n2)on1` [Compound 7, 3-(2-methoxyphenyl)-N-(2-morpholinopyrimidin-4-yl)isoxazol-5-amine], the pIC50 was 5.08.
With `COc1ccc(-c2cc(Nc3ccnc(N4CCN(C)CC4)n3)on2)cc1` [Compound 48, 3-(4-methoxyphenyl)-N-(2-(4-methylpiperazin-1-yl)pyrimidin-4-yl)isoxazol-5-amine] the pIC50 was 5.81.
In the case of `FC(F)Oc1ccc(-c2cc(Nc3ccnc(N4CCOCC4)n3)on2)cc1` [Compound 18, 3-(4-(difluoromethoxy)phenyl)-N-(2-morpholinopyrimidin-4-yl)isoxazol-5-amine], the pIC50 was 5.37.
Compound `CN(C)c1ccc(-c2cc(Nc3ccnc(N4CCOCC4)n3)on2)cc1` [Compound 21, 3-(4-(dimethylamino)phenyl)-N-(2-morpholinopyrimidin-4-yl)isoxazol-5-amine] has a pIC50 of 6.92.
`COc1ccc(-c2cc(N(C)c3ccnc(N4CCOCC4)n3)on2)cc1` [Compound 63, 3-(4-methoxyphenyl)-N-methyl-N-(2-morpholinopyrimidin-4-yl)isoxazol-5-amine] gave a pIC50 of 6.80.
For `Clc1ccc(-c2cc(Nc3ccnc(N4CCOCC4)n3)on2)cc1` [Compound 12, 3-(4-chlorophenyl)-N-(2-morpholinopyrimidin-4-yl)isoxazol-5-amine], the pIC50 was < 5.00.
`COc1ccc(-c2cc(Nc3ccnc(N4CCOCC4)n3)on2)cc1OC` [Compound 24, 3-(3,4-dimethoxyphenyl)-N-(2-morpholinopyrimidin-4-yl)isoxazol-5-amine] was tested, and the pIC50 was 6.14.
`c1cc(Nc2cc(-c3ccc4c(c3)OCO4)no2)nc(N2CCOCC2)n1` [Compound 26, 3-(benzo[d][1,3]dioxol-5-yl)-N-(2-morpholinopyrimidin-4-yl)isoxazol-5-amine] gave a pIC50 of 6.06.
For `Fc1ccc(-c2cc(Nc3ccnc(N4CCOCC4)n3)on2)cc1` [Compound 11, 3-(4-fluorophenyl)-N-(2-morpholinopyrimidin-4-yl)isoxazol-5-amine], the pIC50 was < 5.00.
`COc1ccc(-c2cc(Nc3ccnc(N4C5CCC4COC5)n3)on2)cc1F` [Compound 66, N-(2-(3-oxa-8-azabicyclo[3.2.1]octan-8-yl)pyrimidin-4-yl)-3-(3-fluoro-4-methoxyphenyl)isoxazol-5-amine] showed a pIC50 of 7.28.
In the case of `Oc1ccc(-c2cc(Nc3ccnc(N4CCOCC4)n3)on2)cc1` [Compound 30, 4-(5-((2-morpholinopyrimidin-4-yl)amino)isoxazol-3-yl)phenol], the pIC50 was < 5.00.
In the case of `COc1ccc(-c2cc(Nc3ccnc(N4CCOCC4)n3)on2)cc1F` [Compound 22, 3-(3-fluoro-4-methoxyphenyl)-N-(2-morpholinopyrimidin-4-yl)isoxazol-5-amine], the pIC50 was 7.89.
In the case of `c1ccc(COc2ccc(-c3cc(Nc4ccnc(N5CCOCC5)n4)on3)cc2)cc1` [Compound 32, 3-(4-(benzyloxy)phenyl)-N-(2-morpholinopyrimidin-4-yl)isoxazol-5-amine], the pIC50 was < 5.00.
`COc1ccc(-c2cc(Nc3ccnc(N4CCCC4)n3)on2)cc1F` [Compound 67, 3-(3-fluoro-4-methoxyphenyl)-N-(2-(pyrrolidin-1-yl)pyrimidin-4-yl)isoxazol-5-amine] was tested, and the pIC50 was 7.31.
For `COc1ccc(-c2cc(Nc3ccnc(N4CCSCC4)n3)on2)cc1` [Compound 40, 3-(4-methoxyphenyl)-N-(2-thiomorpholinopyrimidin-4-yl)isoxazol-5-amine], the pIC50 was 6.95.
Compound `COc1ccc(-c2cc(Nc3ccnc(N4CCCCC4)n3)on2)cc1` [Compound 42, 3-(4-methoxyphenyl)-N-(2-(piperidin-1-yl)pyrimidin-4-yl)isoxazol-5-amine] has a pIC50 of 6.94.
Work on `CN(C)c1ccc(-c2cc(Nc3ccnc(N4CCC(F)CC4)n3)on2)cc1` [Compound 64, 3-(4-(dimethylamino)phenyl)-N-(2-(4-fluoropiperidin-1-yl)pyrimidin-4-yl)isoxazol-5-amine] yielded a pIC50 of 6.80.
With `COc1ccc(-c2cc(Nc3ccnc(N4CCC(C(F)(F)F)CC4)n3)on2)cc1` [Compound 44, 3-(4-methoxyphenyl)-N-(2-(4-(trifluoromethyl)piperidin-1-yl)pyrimidin-4-yl)isoxazol-5-amine] the pIC50 was 7.25.
In the case of `FC(F)(F)c1ccc(-c2cc(Nc3ccnc(N4CCOCC4)n3)on2)cc1` [Compound 16, N-(2-morpholinopyrimidin-4-yl)-3-(4-(trifluoromethyl)phenyl)isoxazol-5-amine], the pIC50 was < 5.00.

What follows are compounds tested on JIMT-1 cells (assay: Western blot of mitotic arrest, DNA damage and apoptosis markers). Settings: 24 hours, dose response.
Format: cell-based, human
Procedure: JIMT-1, MDA-MB-436, MDA-MB-157 and BT-474 T-DM1R cell lines were tested with respect to their response to these three drugs. […] Although higher KHS101 doses was included, which were used by others (Campo & Breuer, 2018), an induction of these markers was only observed at very high doses.
In the case of `CC(C)CNc1ccnc(NCc2csc(-c3ccccc3)n2)n1` [KHS101, reference compound], the “induction of mitotic arrest, DNA damage and apoptosis markers” value was “considerably higher doses”.
